Measured values published in the Biogen ADME set (Fang et al. 2023).
Converted amounts (≈) assume the structure as drawn.

Conditions: for aqueous solubility: pH 6.8

| SMILES | intrinsic clearance, human liver microsomes [mL/min/kg] | intrinsic clearance, rat liver microsomes [mL/min/kg] | aqueous solubility [µg/mL] | MDR1-MDCK efflux ratio | fraction unbound, human plasma | fraction unbound, rat plasma |
| --- | --- | --- | --- | --- | --- | --- |
| O=C(Cn1c(=O)c2cccn2c2ccccc21)NCCCN1CCCC1 | ≤ 4.74 | 634 | 52.3 (≈ 148 µM) | 78.1 | – | – |
| O=C(NCCc1csc(N2CCCC2)n1)N1CCSCC1 | 61.9 | 882 | 52.6 (≈ 161 µM) | 4.26 | – | – |
| NC1(c2nc(-c3ccsc3)no2)CCCCC1 | ≤ 4.74 | 447 | – | – | – | – |
| O=C1NC2(CCCCC2)C(=O)N1Cc1csc(-c2ccccc2)n1 | 23.7 | 862 | – | 1.15 | – | – |
| Cc1csc(-c2nnc(Nc3ccc(Oc4ncccc4-c4ccnc(N)n4)cc3)c3ccccc23)c1 | – | – | 0.76 (≈ 1.51 µM) | 0.918 | – | – |
| Cc1cc(NC(=O)Cn2nc(C3CC3)ccc2=O)ccc1Cl | – | – | 0.86 (≈ 2.71 µM) | 0.894 | – | – |
| Cc1cc2occ(CC(=O)NC3CCN(C)CC3)c2cc1C(C)C | 13.9 | 407 | 34.4 (≈ 105 µM) | 6.32 | – | – |
| Cc1cccc(Oc2ncccc2N)c1C | 11.7 | 308 | 45.3 (≈ 212 µM) | 0.588 | – | – |
| O=C1Nc2ccc(Cl)cc2[C@@](C#CC2CC2)(C(F)(F)F)O1 | – | – | 15.3 (≈ 48.4 µM) | – | – | – |
| O=C(c1cccs1)N1CCCC(C(=O)N2Cc3ccccc3C(c3ccccc3)C2)C1 (centres undefined) | 767 | 4910 | 24.7 (≈ 57.4 µM) | – | – | – |
| Cc1ccccc1C(=O)N1CCC[C@@H]1Cn1nnn(-c2cccs2)c1=O | 114 | 929 | 49 (≈ 133 µM) | 1.11 | – | – |
| Cc1nc(-c2ccc(C)c(O)c2)n(C(C)(C)C)n1 | ≤ 4.74 | 124 | 12.1 (≈ 49.3 µM) | – | – | – |
| COCCNC(=O)c1nnc2n(c1=O)CCN2c1ccccc1 | ≤ 4.74 | ≤ 10.7 | – | 9.52 | – | – |
| CN(C)[C@@H]1CN(C(=O)CCn2cnc3ccccc32)C[C@H]1O | 5.49 | 30.7 | 151 (≈ 500 µM) | 1.66 | – | – |
| c1cc(CNc2ncc(-c3cnccn3)c(C3CC3)n2)ccn1 | 25 | 1310 | – | 1.35 | – | – |
| Cc1ccnc(-n2nccc2NC(=O)NC2(C)CCC2)c1 | 72.8 | 931 | – | 0.579 | – | – |
| Cc1nc(Nc2nccs2)cc(C2CN(c3ncccn3)C2)n1 | 30.3 | 74.2 | – | 1.45 | 0.0278 | 0.0237 |
| Cc1ccc(C(N)=O)c(OCc2c(Cl)ccc3cccnc23)c1 | – | – | 0.61 (≈ 1.87 µM) | 0.372 | – | – |
| O=C(Nc1ccccc1)Nc1ccc(OC(F)(F)F)cc1 | – | – | 0.8 (≈ 2.7 µM) | 0.328 | – | – |
| Cn1ncc2c(Oc3cccc(Oc4ccccn4)c3)ncnc21 | 10.1 | 369 | 39.8 (≈ 125 µM) | 0.672 | – | – |
| Cc1ccc(C(=O)Nc2ccccc2C#N)cc1 | 88.2 | 173 | 10.4 (≈ 43.9 µM) | – | – | – |
| c1ccc(OCCN2CCN(c3ncccn3)CC2)cc1 | 126 | 516 | – | 0.534 | – | – |

Continued, values first:

| intrinsic clearance, human liver microsomes [mL/min/kg] | intrinsic clearance, rat liver microsomes [mL/min/kg] | aqueous solubility [µg/mL] | MDR1-MDCK efflux ratio | fraction unbound, human plasma | fraction unbound, rat plasma | SMILES |
| --- | --- | --- | --- | --- | --- | --- |
| 26.3 | 99.7 | 46.6 (≈ 160 µM) | – | – | – | CC(C)CCN1CCn2c1nc1c2c(=O)n(C)c(=O)n1C |
| – | – | 36.2 (≈ 151 µM) | – | – | – | Cc1cnc(CS(=O)(=O)C2CCCC2)cn1 |
| 10.2 | 528 | – | – | – | – | CSC1(CNc2cncc(Cl)n2)CCOCC1 |
| 99.9 | 581 | – | 13.3 | – | – | Clc1cccc(Cl)c1Cc1n[nH]c(CCCn2cccn2)n1 |
| 4.93 | 684 | – | 0.958 | – | – | Cc1cccnc1CN1CCC(O)(c2ccccc2)CC1 |
| ≤ 4.74 | ≤ 10.7 | 59.8 (≈ 241 µM) | 2.82 | – | – | Cc1nccc(C2(C)CCN(CC(N)=O)CC2)n1 |
| 54 | 371 | – | 0.425 | – | – | CN(Cc1ccc(CO)cc1)Cc1cc(F)c(F)c(F)c1 |
| ≤ 4.74 | 10.8 | – | 24 | – | – | C[C@H](NC(=O)CCC(F)(F)F)C(=O)N[C@@H]1C(=O)N(CCO)c2ncccc2-c2ccccc21 |
| 99.1 | 3630 | – | 0.696 | – | – | Cc1ccnc(N2CC(O)(c3ccc(F)cc3)C2)c1C#N |
| 7.34 | ≤ 10.7 | – | 9.48 | – | – | Cc1cc(N2CCN(CC3CCN(C(=O)CC(C)C)CC3)CC2)n[nH]1 |
| 7.42 | 152 | – | 2.87 | – | – | CCCNC(=O)C1(NCc2csnn2)CCCCC1 |
| 9.28 | 148 | 49.1 (≈ 171 µM) | 0.827 | – | – | CCc1cc(NCc2cccc(OCCOC)c2)ncn1 |
| 107 | 443 | 41.7 (≈ 139 µM) | 1.09 | – | – | c1ccc(CCc2n[nH]c(-c3cccc4cnccc34)n2)cc1 |
| ≤ 4.74 | 61.5 | 44.8 (≈ 132 µM) | 1.98 | 0.0156 | 0.12 | Cc1nnc(-c2ccc3occ(-c4ccc(S(C)=O)cc4)c3c2)o1 (centres undefined) |
| ≤ 4.74 | ≤ 10.7 | – | 3.95 | – | – | Cn1cnnc1NC(=O)c1cnn2c1CCCC2 |
| 34.8 | 377 | 17.2 (≈ 54 µM) | 1.59 | – | – | Cc1sc2ncnc(OCC(=O)NC3CCCCC3)c2c1C |
| ≤ 4.74 | 43.2 | – | – | – | – | O=C(c1ccc(-c2ccncc2)cc1)N1CCC(F)(F)CC1 |
| ≤ 4.74 | 50 | – | 7.53 | – | – | COCCc1n[nH]c(-c2ccc(N3CCN(C)CC3)cc2)n1 |
| 89.4 | 1690 | 36.4 (≈ 113 µM) | 0.673 | – | – | CCc1cc(CN(C)c2nccc(-c3ccc(C)nc3C)n2)on1 |
| ≤ 4.74 | 20.5 | 73.1 (≈ 141 µM) | 13.5 | – | – | COc1cc(Nc2ncc3c(n2)-c2ccc(Cl)cc2C(c2c(F)cccc2OC)=NC3)ccc1C(=O)O |
| – | – | 0.36 (≈ 1.07 µM) | – | – | – | O=C(Cc1csc(-c2ccc(F)c(F)c2)n1)NCC(F)(F)F |
